According to patent US9067949B2, “Benzofuro[3,2-c] pyridines and related analogs as serotonin sub-type 6 (5-HT6) modulators for the treatment of obesity, metabolic syndrome, cognition and schizophrenia” (Albany Molecular Research, Inc., priority 2011, dated 2015):

What was measured:
[1] = target: human 5-HT6 receptor (Homo sapiens (Human), UniProt P50406); test: 5-HT6 radioligand binding assay (SPA format, [N-methyl-3H]-LSD); settings: human 5-HT6 receptor membranes, 10 nM [N-methyl-3H]-LSD; Ki by Cheng-Prusoff; read-out: human 5HT6 Ki
How it was run: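 Human 5-HT6 receptor membranes were incubated overnight at room temperature with 10 nM [N-methyl-3H]-LSD and competitor in 50 mM Tris-HCl pH 7.5, 5 mM MgCl2, 1 mM EDTA, 4% DMSO, read by SPA. Nonspecific binding was defined with 100 μM 5-HT. IC50 came from ten-point duplicate curves; Ki via Cheng-Prusoff.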

Chain of human 5-HT6 receptor (P50406 whole entry): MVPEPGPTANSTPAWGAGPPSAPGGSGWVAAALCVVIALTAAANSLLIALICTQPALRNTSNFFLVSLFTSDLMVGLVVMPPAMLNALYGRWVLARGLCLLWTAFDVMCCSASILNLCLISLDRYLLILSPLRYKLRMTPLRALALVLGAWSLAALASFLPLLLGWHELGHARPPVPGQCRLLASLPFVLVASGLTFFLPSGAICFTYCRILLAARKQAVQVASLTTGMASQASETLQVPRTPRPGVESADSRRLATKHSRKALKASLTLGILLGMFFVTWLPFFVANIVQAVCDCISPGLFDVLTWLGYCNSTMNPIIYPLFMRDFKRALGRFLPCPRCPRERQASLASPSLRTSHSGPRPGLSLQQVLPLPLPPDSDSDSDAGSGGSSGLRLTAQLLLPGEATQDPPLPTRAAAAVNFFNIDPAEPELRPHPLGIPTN

Row | SMILES | Ki [1] | melting point
1 | Cl.N#Cc1cccc(S(=O)(=O)c2cc(Cl)c3oc4c(c3c2)CNCC4)c1 [Example 48, 6-Chloro-8-(3-cyanophenylsulfonyl)-1,2,3,4-tetrahydrobenzofuro[3,2-c]pyridine hydrochloride] | 0.012 µM | 272 to 274 °C
2 | Cc1cn(S(=O)(=O)c2ccc3oc4c(c3c2)C2CCC(C4)N2)c2ccccc12.Cl (centres unmarked) [Example 58, 2-(3-Methyl-1H-indol-1-yl)sulfonyl-6,7,8,9,10-pentahydro-7,10-epiminocyclohepta[b]benzofuran hydrochloride] | 0.016 µM | 195 to 199 °C
3 | Cl.O=S(=O)(c1cccc(Cl)c1)c1ccc2c3c(oc2c1)CCNC3 [Example 62, 7-(3-Chlorophenylsulfonyl)-1,2,3,4-tetrahydrobenzofuro[3,2-c]pyridine hydrochloride] | 0.0017 µM | 288 to 292 °C
4 | Cl.O=S(=O)(c1ccccc1)c1cc(CCO)c2oc3c(c2c1)CNCC3 [Example 79, 2-(8-(phenylsulfonyl)-1,2,3,4-tetrahydrobenzofuro[3,2-c]pyridin-6-yl)ethanol hydrochloride] | 0.0043 µM | 239 to 240 °C
5 | Cl.O=S(=O)(c1cc(F)cc(F)c1)c1ccc2oc3c(c2c1)CNCC3 [Example 37, 8-(3,5-Difluorophenylsulfonyl)-1,2,3,4-tetrahydrobenzofuro[3,2-c]pyridine hydrochloride] | 0.339 µM | 275 to 281 °C (dec.)
6 | CC1(C)NCCc2oc3c(Cl)cc(S(=O)(=O)c4ccccc4)cc3c21.Cl [Example 84, 6-chloro-1,1-dimethyl-8-(phenylsulfonyl)-1,2,3,4-tetrahydrobenzofuro[3,2-c]pyridine hydrochloride] | 0.027 µM | 282 to 287 °C (dec.)
7 | O=S(=O)(c1ccccc1)c1cc(Cl)c2oc3c(c2c1)CC(O)CC3 (single isomer, unassigned; (-)) [Example 98, (−)-6-chloro-8-(phenylsulfonyl)-1,2,3,4-tetrahydrodibenzo[b,d]furan-2-ol] | 0.046 µM | 236 to 240 °C
8 | Cl.O=S(=O)(c1ccc(Cl)cc1)c1cc(Cl)c2oc3c(c2c1)CNCC3 [Example 49, 6-Chloro-8-(4-chlorophenylsulfonyl)-1,2,3,4-tetrahydrobenzofuro[3,2-c]pyridine hydrochloride] | 0.0019 µM | 282 to 284 °C
9 | O=S(=O)(c1ccccc1)c1cc(Cl)c2oc3c(c2c1)CC(O)CC3 (single isomer, unassigned; (+)) [Example 99, (+)-6-chloro-8-(phenylsulfonyl)-1,2,3,4-tetrahydrodibenzo[b,d]furan-2-ol] | 0.001 µM | 238 to 242 °C
10 | Cl.O=S(=O)(c1ccc2c3c(oc2c1)CC1CCC3N1)n1ccc2ccccc21 (centres unmarked) [Example 67, 3-(1H-indol-1-yl)sulfonyl-6,7,8,9,10-pentahydro-7,10-epiminocyclohepta[b]benzofuran hydrochloride] | 0.034 µM | 192 to 196 °C
11 | Cl.O=S(=O)(c1ccccc1)c1cc(F)c2oc3c(c2c1)CNCC3 [Example 52, 6-Fluoro-8-(phenylsulfonyl)-1,2,3,4-tetrahydrobenzofuro[3,2-c]pyridine hydrochloride] | 0.0051 µM | 232 to 250 °C
12 | CC(c1ccccc1)c1cc(Cl)c2oc3c(c2c1)CNCC3.Cl (centres unmarked) [Example 95, 6-chloro-8-(1-phenylethyl)-1,2,3,4-tetrahydrobenzofuro[3,2-c]pyridine hydrochloride] | 0.0075 µM | 245 to 255 °C (dec.)
13 | Cl.O=S(=O)(c1cc(Cl)cc(Cl)c1)c1ccc2oc3c(c2c1)CNCC3 [Example 38, 8-(3,5-Dichlorophenylsulfonyl)-1,2,3,4-tetrahydrobenzofuro[3,2-c]pyridine hydrochloride] | 0.017 µM | 312 to 315 °C
